According to patent US10017403B2, “Use of peracetic acid/hydrogen peroxide and peroxide-reducing enzymes for treatment of drilling fluids, frac fluids, flowback water and disposal water” (ECOLAB USA INC., priority 2012, dated 2018):

Experiments:
[1] = Catalase amount needed in POAA treated water, iodometric titration (Example 15); format: biochemical
Protocol: Field of use applications were analyzed to determine the amount of a peroxide-reducing enzyme necessary to obtain desired concentrations of both peracid and hydrogen peroxide in a treated water source. EnviroSan (POAA) peracid composition was added to water to reach the targeted POAA concentrations set forth in Table 18, and the concentration of both POAA and H2O2 were confirmed by iodometric titration. Then catalase (ES2000) was added to the solution, and the sample was stored under ambient conditions. The concentration of POAA and H2O2 were monitored by the iodometric conditions.

fracking water mixtures [2] = assay: Micro efficacy in fracking water mixtures, baseline without catalase (Example 3); format: cell-based
Protocol: The impact of water pretreatment with 500 ppm of the EnviroSan product (75 ppm POAA) on micro efficacy in various fracking water mixtures were evaluated. The example represents a baseline data set of various water treatment options according to the invention. Table 2 and FIG. 3 show the average log reduction in various slick water treatments with varying ppm PAA (without any catalase treatment or pretreatment), representing a baseline data set.

[3] = Titration of POAA consumption in water mixtures (Example 6); format: physicochemical
[4] = system: Pseudomonas aeruginosa ATCC 15442; assay: Micro efficacy at 30 ppm POAA with or without catalase, with or without water pretreatment (Example 7); format: cell-based; settings: no holding tank pretreatment, 30 ppm PAA
Protocol: All water mixtures were treated with an initial concentration of 30 ppm POAA EnviroSan, both with and without the addition of catalase. The data set evaluates whether there is a significant difference in micro activity generated between treatments of EnviroSan alone vs. EnviroSan pre-reduced with catalase.
All ratios of fracking water mixtures tested (100/0, 90/10, 80/20 & 70/30) were freshly mixed solutions, as well as solutions mixed and pretreated with 500 ppm EnviroSan product more than 1 hour before the start of the micro evaluation, in order to observe if a pretreatment step is of value for micro performance compared to those mixtures not pretreated. The test system (P. aeruginosa and natural water) described in Example 5 was again utilized. Water mixtures as outlined in Table 9 were provided (showing the percentage of 100 mL of each water sample type).
The testing methods of Example 5 were utilized for the chemically treated water samples, differing only in the combination of the 10 mL inoculated water mixtures with appropriate volumes of the EnviroSan with or without catalase to achieve 30 ppm POAA residual to each test tube in timed intervals and mixed. The methods of Example 5 were employed to make the EnviroSan with catalase stock solutions. In comparison, for the water samples that were not chemically treated, 9.9 mL of test water mixture was dispensed into 2 individual test tubes. 0.10 mL of an approximate 10^8 CFU/mL culture of P. aeruginosa was added in timed intervals and mixed thoroughly. Then 1 mL samples were neutralized in 9 mL of 0.5% sodium thiosulfate, followed by serial dilution and enumeration after 2.5 minutes, 5 minutes and 60 minute exposure times.
Table 11C show the use of 30 ppm POAA with/without catalase treatment compared for micro performance at both 2.5 and 5.0 minutes exposure times. Upon addition of 10-30% reuse water a defined drop in antimicrobial performance was observed over both 2.5 and 5 minutes as peracid was rapidly consumed if not pretreated with catalase. A residual of 30 ppm POAA at 5 minutes was needed to achieve the desired antimicrobial performance.

fracking water mixtures [5] = assay: Micro efficacy: POAA dosed for 30 ppm residual versus POAA pretreated with catalase (Example 8); format: cell-based; settings: no holding tank treatment
Protocol: A micro efficacy comparison of POAA added at levels to target 30 ppm POAA residuals at 5 minutes versus POAA pretreated with catalase was conducted as set forth in Table 12.

[6] = catalase 0.5 ppm, time 0 hr, series starting 14.6 ppm POAA, EnviroSan in water, ambient
[7] = catalase 0.5 ppm, time 0 hr, series starting 31.1 ppm POAA
[8] = catalase 0.5 ppm, time 1 hr, series starting 14.6 ppm POAA
[9] = catalase 0.5 ppm, time 1 hr, series starting 31.1 ppm POAA
[10] = catalase 0.5 ppm, time 2 hr, series starting 14.6 ppm POAA
[11] = catalase 0.5 ppm, time 2 hr, series starting 31.1 ppm POAA
[12] = catalase 0.5 ppm, time 3.6 hr, series starting 14.6 ppm POAA
[13] = catalase 0.5 ppm, time 3.6 hr, series starting 31.1 ppm POAA
[14] = catalase 1.0 ppm, time 0 hr, series starting 14.8 ppm POAA
[15] = catalase 1.0 ppm, time 0 hr, series starting 30.1 ppm POAA
[16] = catalase 1.0 ppm, time 1 hr, series starting 14.8 ppm POAA
[17] = catalase 1.0 ppm, time 1 hr, series starting 30.1 ppm POAA
[18] = catalase 1.0 ppm, time 2 hr, series starting 14.8 ppm POAA
[19] = catalase 1.0 ppm, time 2 hr, series starting 30.1 ppm POAA
[20] = catalase 1.0 ppm, time 3.6 hr, series starting 14.8 ppm POAA
[21] = catalase 1.0 ppm, time 3.6 hr, series starting 30.1 ppm POAA

In the case of catalase, the “catalase concentration sufficient for treating the water source” value ([1]; ambient conditions) is reported as about 1 ppm, the “H2O2 (ppm)” value [1, 6] is reported as 12.0 ppm and the “POAA (ppm)” value [1, 6] is reported as 14.6 ppm. For the same compound, the “H2O2 (ppm)” value [1, 7] was 22.8 ppm, the “POAA (ppm)” value [1, 7] was 31.1 ppm and the “H2O2 (ppm)” value [1, 8] was 7.5 ppm. The “POAA (ppm)” value [1, 8] was 15.0 ppm, the “H2O2 (ppm)” value [1, 9] was 12.2 ppm and the “POAA (ppm)” value [1, 9] was 32.0 ppm. The “H2O2 (ppm)” value [1, 10] was 6.5 ppm, the “POAA (ppm)” value [1, 10] was 14.3 ppm and the “H2O2 (ppm)” value [1, 11] was 7.8 ppm. For the same compound, the “POAA (ppm)” value [1, 11] was 29.2 ppm, the “H2O2 (ppm)” value [1, 12] was 1.8 ppm and the “POAA (ppm)” value [1, 12] was 14.2 ppm. For the same compound, the “H2O2 (ppm)” value [1, 13] was 3.4 ppm, the “POAA (ppm)” value [1, 13] was 30.6 ppm and the “H2O2 (ppm)” value [1, 14] was 12.6 ppm. The “POAA (ppm)” value [1, 14] was 14.8 ppm, the “H2O2 (ppm)” value [1, 15] was 23.3 ppm and the “POAA (ppm)” value [1, 15] was 30.1 ppm. For the same compound, the “H2O2 (ppm)” value [1, 16] was 3.7 ppm, the “POAA (ppm)” value [1, 16] was 14.6 ppm and the “H2O2 (ppm)” value [1, 17] was 7.6 ppm. For the same compound, the “POAA (ppm)” value [1, 17] was 31.0 ppm, the “H2O2 (ppm)” value [1, 18] was 1.1 ppm and the “POAA (ppm)” value [1, 18] was 14.2 ppm. The “H2O2 (ppm)” value [1, 19] was 2.3 ppm, the “POAA (ppm)” value [1, 19] was 29.6 ppm and the “H2O2 (ppm)” value [1, 20] was 0.4 ppm. The “POAA (ppm)” value [1, 20] was 15.9 ppm, the “H2O2 (ppm)” value [1, 21] was 0.0 ppm and the “POAA (ppm)” value [1, 21] was 29.3 ppm. The “selectivity of catalase for H2O2 over POAA” value ([1]; tested ambient conditions) was “selectively decomposes the H2O2 without having any negative impact on POAA stability” and the “lowest catalase concentration with which pond water with POAA and H2O2 could be treated” value ([1]; within 4 hours, ambient conditions) was 0.5 ppm.

For `CC(=O)OO` [POAA, peracetic acid], the “Avg. Log10 Reduction” value (fracking water mixtures [2]; 75 ppm PAA holding tank pretreatment, 10% reuse H2O, 29 ppm POAA, no catalase, 2.5 minutes) was 6.45 Log10, the “Avg. Log10 Reduction” value (fracking water mixtures [2]; 75 ppm PAA holding tank pretreatment, 10% reuse H2O, 29 ppm POAA, no catalase, 5 minutes) was 6.71 Log10 and the “Avg. Log10 Reduction” value (fracking water mixtures [2]; 75 ppm PAA holding tank pretreatment, 20% reuse H2O, 47 ppm PAA, no catalase, 2.5 minutes) was 6.42 Log10. For the same compound, the “Avg. Log10 Reduction” value (fracking water mixtures [2]; 75 ppm PAA holding tank pretreatment, 20% reuse H2O, 47 ppm PAA, no catalase, 5 minutes) was 6.55 Log10, the “Avg. Log10 Reduction” value (fracking water mixtures [2]; 75 ppm PAA holding tank pretreatment, 30% reuse H2O, 86 ppm POAA, no catalase, 2.5 minutes) was 6.47 Log10 and the “Avg. Log10 Reduction” value (fracking water mixtures [2]; 75 ppm PAA holding tank pretreatment, 30% reuse H2O, 86 ppm POAA, no catalase, 5 minutes) was 6.41 Log10. For the same compound, the “Avg. Log10 Reduction” value (fracking water mixtures [2]; no holding tank pretreatment, 0% reuse H2O, 22 ppm POAA, 2.5 minutes) was 5.53 Log10, the “Avg. Log10 Reduction” value (fracking water mixtures [2]; no holding tank pretreatment, 0% reuse H2O, 22 ppm POAA, 5 minutes) was 5.75 Log10 and the “Avg. Log10 Reduction” value (fracking water mixtures [2]; no holding tank pretreatment, 10% reuse H2O, 36 ppm POAA, 2.5 minutes) was 4.32 Log10. The “Avg. Log10 Reduction” value (fracking water mixtures [2]; no holding tank pretreatment, 10% reuse H2O, 36 ppm POAA, 5 minutes) was 4.72 Log10, the “Avg. Log10 Reduction” value (fracking water mixtures [2]; no holding tank pretreatment, 20% reuse H2O, 86 ppm POAA, 2.5 minutes) was 4.57 Log10 and the “Avg. Log10 Reduction” value (fracking water mixtures [2]; no holding tank pretreatment, 20% reuse H2O, 86 ppm POAA, 5 minutes) was 4.64 Log10. For the same compound, the “Avg. Log10 Reduction” value (fracking water mixtures [2]; no holding tank pretreatment, 30% reuse H2O, 138 ppm POAA, 2.5 minutes) was 4.12 Log10, the “Avg. Log10 Reduction” value (fracking water mixtures [2]; no holding tank pretreatment, 30% reuse H2O, 138 ppm POAA, 5 minutes) was 5.00 Log10 and the “Actual Titrated Concentration (ppm POAA)” value ([3]; 70% Fresh/30% Produced, desired 30 ppm POAA, 1 minutes) was 7 ppm. For the same compound, the “Actual Titrated Concentration (ppm POAA)” value ([3]; 70% Fresh/30% Produced, desired 30 ppm POAA, 5 minutes) was 0 ppm, the “Actual Titrated Concentration (ppm POAA)” value ([3]; 70% Fresh/30% Produced, desired 40 ppm POAA, 1 minutes) was 12 ppm and the “Actual Titrated Concentration (ppm POAA)” value ([3]; 70% Fresh/30% Produced, desired 40 ppm POAA, 5 minutes) was 0 ppm. For the same compound, the “Actual Titrated Concentration (ppm POAA)” value ([3]; 80% Fresh/20% Produced, desired 30 ppm POAA, 1 minutes) was 13 ppm, the “Actual Titrated Concentration (ppm POAA)” value ([3]; 80% Fresh/20% Produced, desired 30 ppm POAA, 5 minutes) was 0 ppm and the “Actual Titrated Concentration (ppm POAA)” value ([3]; 80% Fresh/20% Produced, desired 40 ppm POAA, 1 minutes) was 21 ppm. The “Actual Titrated Concentration (ppm POAA)” value ([3]; 80% Fresh/20% Produced, desired 40 ppm POAA, 5 minutes) was 2 ppm, the “Actual Titrated Concentration (ppm POAA)” value ([3]; 90% Fresh/10% Produced, desired 30 ppm POAA, 1 minutes) was 21 ppm and the “Actual Titrated Concentration (ppm POAA)” value ([3]; 90% Fresh/10% Produced, desired 30 ppm POAA, 5 minutes) was 8 ppm. For the same compound, the “Actual Titrated Concentration (ppm POAA)” value ([3]; 90% Fresh/10% Produced, desired 40 ppm POAA, 1 minutes) was 30 ppm, the “Actual Titrated Concentration (ppm POAA)” value ([3]; 90% Fresh/10% Produced, desired 40 ppm POAA, 5 minutes) was 16 ppm and the “Avg. Log10 Reduction” value ([4]; 0% reuse H2O, 2.5 minutes) was 4.64 Log10. The “Avg. Log10 Reduction” value ([4]; 0% reuse H2O, 5 minutes) was 6.32 Log10, the “Avg. Log10 Reduction” value ([4]; 10% reuse H2O, 2.5 minutes) was 3.09 Log10 and the “Avg. Log10 Reduction” value ([4]; 10% reuse H2O, 5 minutes) was 3.91 Log10. The “Avg. Log10 Reduction” value ([4]; 20% reuse H2O, 2.5 minutes) was 2.19 Log10, the “Avg. Log10 Reduction” value ([4]; 20% reuse H2O, 5 minutes) was 2.38 Log10 and the “Avg. Log10 Reduction” value ([4]; 30% reuse H2O, 2.5 minutes) was 1.88 Log10. For the same compound, the “Avg. Log10 Reduction” value ([4]; 30% reuse H2O, 5 minutes) was 1.93 Log10, the “Avg. Log10 Reduction” value (fracking water mixtures [5]; 10% reuse H2O, 46 ppm PAA, 2.5 minutes) was 4.32 Log10 and the “Avg. Log10 Reduction” value (fracking water mixtures [5]; 10% reuse H2O, 46 ppm PAA, 5 minutes) was 4.72 Log10. The “Avg. Log10 Reduction” value (fracking water mixtures [5]; 20% reuse H2O, 86 ppm PAA, 2.5 minutes) was 4.57 Log10, the “Avg. Log10 Reduction” value (fracking water mixtures [5]; 20% reuse H2O, 86 ppm PAA, 5 minutes) was 4.64 Log10 and the “Avg. Log10 Reduction” value (fracking water mixtures [5]; 30% reuse H2O, 138 ppm PAA, 2.5 minutes) was 4.12 Log10. For the same compound, the “Avg. Log10 Reduction” value (fracking water mixtures [5]; 30% reuse H2O, 138 ppm PAA, 5 minutes) was 5.00 Log10.
